# Experimental data: US20260297060A1, “COMPOUNDS FOR THE DEGRADATION OF MUTANT BRAF” (C4 THERAPEUTICS, INC., priority 2023, published 2026)
# Where two headings read alike, the source gives them in different places.
# What was measured:
# [1] = test system: A375 human melanoma xenografts; experiment: Example 9 efficacy study Part I in A375 human melanoma xenografts (tumor volume, T/C, TGI); assay type: in vivo, BALB/c nude mice; conditions: 100 mg/kg, p.o., QD × 14 days
# Description: For efficacy study Part I, agents were tested in the A375 human melanoma xenografts. Compound 218 and Compound 157 were administered to BALB/c nude mice bearing A375 xenografts from day 0 and dosed twice a day (BID) for 14 days. Compound 218 and Compound 157 were dosed at 10 mg/kg via p.o.. Dabrafenib was administered from day 1 daily (QD) for 14 days and dosed at 100 mg/kg via p.o..
# The A375 tumor cells were maintained in vitro in DMEM medium supplemented with […] and 1% Penicillin-Streptomycin at 37° C. in an atmosphere of 5% CO2 in air. The tumor cells were routinely subcultured twice weekly. The cells growing in an exponential growth phase were harvested and counted for tumor inoculation.
# Each mouse was inoculated subcutaneously at the right flank with A375 cells (5×10^6) in 0.2 mL of PBS supplemented with Matrigel (PBS: Matrigel=1:1) for tumor development. Animals were grouped for the treatment when the average tumor volume reached 243 mm^3 for efficacy study part I and 413 mm^3 for the PK and PD study part I on day 15, and 271 mm^3 for efficacy part II and 443 mm^3 for the PK and PD part II on day 18, and 463 mm^3 for the PK and PD study part III on day 21. The test articles administration and the animal numbers in each group are shown in the above experimental tables.
# Prior to the onset of drug treatment, mice were measured for tumor size in two dimensions using a caliper, and the tumor volume (mm^3) was calculated using formula V=0.5 a×b^2 where a and b are the long and short diameters of the tumor in mm, respectively. Mice were randomized into different treatment groups based on the tumor volume.
# The major endpoint was to see if the tumor growth could be delayed or mice could be cured. The tumor size was then used for calculations of T/C value. The T/C value (in percent) is an indication of antitumor effectiveness; T and C are the mean volumes of the treated and control groups, respectively on specified day.
# TGI was calculated for each group using the formula: TGI (%)=[1−(Ti−T0)/(Ci−C0)]×100; Ti is the average tumor volume of a treatment group on a given day, To is the average tumor volume of the treatment group on the day of treatment start, Ci is the average tumor volume of the vehicle control group on the same day with Ti, and C0 is the average tumor volume of the vehicle group on the day of treatment start.
# [2] = Pharmacokinetics in female BALB/c nude mice bearing A375 xenografts, 1 day dosing (PK and PD study): plasma, tumor and brain concentrations, AUC; assay type: in vivo; conditions: 100 mg/kg p.o. QD × 1 day; for Mean Concentration in Brain ± SEM / Mean Concentration in Plasma ± SEM: BQL: below the lower limit of quantitation
# From the text: The concentrations of Dabrafenib, Compound 26 and Compound 141 in the treatment of female BALB/c nude mice bearing A375 xenografts are shown in Table 62-Table 72 and FIG. 52-FIG. 73.
# [3] = test system: A375 human melanoma cancer cell derived xenografts, intracranial; experiment: Example 12 efficacy study, intracranial A375-luciferase CNS model: survival; assay type: in vivo, BALB/c nude mice; conditions: 35 mg/kg PO/QD; vehicle median 18 days
# Description: For the efficacy study, agents were tested in A375 human melanoma cancer cell derived xenografts (CDX). This cell line was isolated from the primary melanoma of a person and is known to have a homozygous BRAF V600E mutation. The A375 tumor cells were maintained in vitro in DMEM medium supplemented with 10% fetal bovine serum and 1% Penicillin-Streptomycin at 37° C. in an atmosphere of 5% CO2 in air. The tumor cells were routinely subcultured twice weekly. The cells growing in an exponential growth phase were harvested and counted for tumor inoculation.
# For this CNS study, A375 cells with a luciferase tag for tracking tumor cell signal, were injected intracranially into 6-8-week-old female BALB/c nude mice (Zhejiang Vital River Laboratory Animal Co., LTD. Beijing, China). The mice were anaesthetized, restrained, and sterilized prior to surgery. A sagittal cut was made above the anterior parietal and occipital bone with sterilized scalpel, the skull was unrevealed and cleaned with cotton bud, in this case the anterior fontanel could be available. A 2 mm hole was created to the right of the anterior fontanel and 0.5 mm ahead of the coronal on the skull with a cranial drill. Cell suspensions in 20% Matrigel were mixed and aspirated into injector carefully to avoid bubbles and wiped to avoid extracranial tumor genesis. The needle was inserted vertically into the cranial hole and the cell mixture was slowly injected for 2 minutes and held for another minute to decrease the drainage of the cell suspension. The wound was closed, and a subcutaneous injection of 5 mg/kg Meloxicam was given to relieve the pain and continued for 3 days. The mice were monitored closely until they woke up after the surgery. During the study, the care and use of animals was conducted in accordance with the regulations of the Association for Assessment and Accreditation of Laboratory Animal Care (AAALAC). After inoculation, the animals were checked daily for morbidity and mortality. At the time of routine monitoring, the animals would be checked for any effects of tumor growth and treatments on normal behavior such as mobility, food and water consumption, body weight gain/loss, eye/hair matting, and any other abnormal effect.
# The administration of the test agents began three days after inoculation. CNS tumor-bearing mice were randomly assigned to groups of 8 mice and administered Compound 26 at 10 mg/kg orally (PO) twice a day (BID), Compound 141 at 10 mg/kg PO/BID, encorafenib at 35 mg/kg once a day orally, (PO/QD), or the vehicle alone PO/BID. Measurements for the presence of the A375 luciferase (CRL-1619-LUC2, ATCC, Manassas, VA, USA) cells within the CNS were done with IVIS Lumina III machine. Images were collected twice weekly to follow the growth of the models. The tumor-bearing mice were weighed and intraperitoneally administered luciferin (Perkin Elmer Inc-122799) at a dosage of 150 mg/kg. After 10 min, mice were pre-anesthetized with the mixture gas of oxygen and isoflurane. The bioluminescence value at 15 min post luciferin injection was recorded as the final value and plotted. The endpoint for individual mice was reached when the mouse body weight decreased by 20% when compared to their starting weight.
# [4] = mouse, brain, po, 100 mg/kg, read-out: Mean Concentration in Brain ± SEM
# [5] = mouse, plasma, po, 100 mg/kg, read-out: Mean Concentration in Plasma ± SEM
# [6] = mouse, tumor, po, 100 mg/kg, read-out: Mean Concentration in Tumor ± SEM
compound,measurement,setting,value
"CC(C)(C)c1nc(-c2cccc(NS(=O)(=O)c3c(F)cccc3F)c2F)c(-c2ccnc(N)n2)s1 [Dabrafenib, dabrafenib, reference compound]",Tumor Volume Trace Over Time,"[1]; Day 0, Mean ± SEM",243 ± 4 mm^3
same,Tumor Volume Trace Over Time,"[1]; Day 3, Mean ± SEM",370 ± 17 mm^3
same,Tumor Volume Trace Over Time,"[1]; Day 7, Mean ± SEM",445 ± 13 mm^3
same,Tumor Volume Trace Over Time,"[1]; Day 10, Mean ± SEM",475 ± 23 mm^3
same,Tumor Volume Trace Over Time,"[1]; Day 14, Mean ± SEM",521 ± 31 mm^3
same,Tumor Size on PG-D14,[1]; Mean ± SEM,521 ± 31 mm^3
same,TGI (Tumor Growth Inhibition),[1]; PG-D14,74.65%
same,T/C,"[1]; PG-D14, treated/control average tumor volume",38.87%
same,Mean Concentration in Brain ± SEM,[2]; 10 h,BQL^a
same,Mean Concentration in Brain ± SEM,[2]; 24 h,BQL
same,Mean Concentration in Plasma ± SEM,[2]; 36 h,BQL
same,Mean Concentration in Plasma ± SEM,[2]; 48 h,BQL
same,concentration at 1 h,[2]; [4],1040 ± 349 ng/g
same,concentration at 4 h,[2]; [4],6.13 ng/g
same,concentration at 48 h,"[2]; mouse, brain, po, 100 mg/kg, 48 h, read-out: Mean Concentration in Brain ± SEM",15.2 ng/g
same,AUC at 24 h,"[2]; mouse, brain, po, read-out: Brain AUC at 24 hours, Average",1580 ng·h/mL
same,concentration at 0.25 h,"[2]; mouse, plasma, po, 100 mg/kg, 0.25 h, read-out: Mean Concentration in Plasma ± SEM",62200 ± 10900 ng/mL
same,concentration at 0.5 h,"[2]; mouse, plasma, po, 100 mg/kg, 0.5 h, read-out: Mean Concentration in Plasma ± SEM",44700 ± 11600 ng/mL
same,concentration at 1 h,[2]; [5],7490 ± 1360 ng/mL
same,concentration at 2 h,"[2]; mouse, plasma, po, 100 mg/kg, 2 h, read-out: Mean Concentration in Plasma ± SEM",844 ± 198 ng/mL
same,concentration at 4 h,[2]; [5],110 ± 37.6 ng/mL
same,concentration at 8 h,"[2]; mouse, plasma, po, 100 mg/kg, 8 h, read-out: Mean Concentration in Plasma ± SEM",55.6 ± 15.5 ng/mL
same,concentration at 10 h,"[2]; mouse, plasma, po, 100 mg/kg, 10 h, read-out: Mean Concentration in Plasma ± SEM",25.9 ± 2.09 ng/mL
same,concentration at 24 h,"[2]; mouse, plasma, po, 100 mg/kg, 24 h, read-out: Mean Concentration in Plasma ± SEM",0.616 ng/mL
same,AUC at 24 h,"[2]; mouse, plasma, po, read-out: Plasma AUC at 24 hours, Average",32100 ng·h/mL
same,concentration at 1 h,[2]; [6],8660 ± 4660 ng/g
same,concentration at 4 h,[2]; [6],442 ± 257 ng/g
same,concentration at 10 h,"[2]; mouse, tumor, po, 100 mg/kg, 10 h, read-out: Mean Concentration in Tumor ± SEM",18 ± 1.88 ng/g
same,concentration at 24 h,"[2]; mouse, tumor, po, 100 mg/kg, 24 h, read-out: Mean Concentration in Tumor ± SEM",253 ng/g
same,concentration at 48 h,"[2]; mouse, tumor, po, 100 mg/kg, 48 h, read-out: Mean Concentration in Tumor ± SEM",4.66 ng/g
same,AUC at 24 h,"[2]; mouse, tumor, po, read-out: Tumor AUC at 24 hours, Average",1680 ng·h/mL
"COC(=O)N[C@@H](C)CNc1nccc(-c2cn(C(C)C)nc2-c2cc(Cl)cc(NS(C)(=O)=O)c2F)n1 [Encorafenib, encorafenib, reference compound]",median survival,[3],46 days
